Experiments:
[1] = humans, taken orally; cited from earlier work
[2] = test system: HCT116 cells; experiment: Anchorage-dependent cell proliferation (MTT), discontinued treatment; format: cell-based, human
Experimental: For cell proliferation determination of HCT116, SW620, LS174T, SW480 and DLD-1 cells 2×10^3 cells were seeded in 96-well-plates (for each day one plate) and were given 24 hours to attach to the bottom of the well. Cells were from then on treated daily with 1 μM niclosamide or the respective amount of DMSO. For determination of viable cells 3-(4,5-dimethyl-2-thiazol)-2,5-diphenyl-2H-tetrazolium bromide (MTT; Sigma) was added to a final concentration of 0.5 mg per mL and incubated for 3 hours at 37° C. and 5% CO2 in a humidified incubator. […] Crystallized MTT was resolved by 10% SDS in 10 mM HCl and the absorption was measured at 560 nm. […] The average MTT metabolisation was determined of two independent experiments each performed in triplicate.
(A) S100A4 expression in vitro after discontinued niclosamide treatment. HCT116 cells were treated daily with 1 μM niclosamide for three consecutive days, medium was removed on day 4, and S100A4 expression was analyzed 24, 48, and 72 hours after niclosamide removal. S100A4 expression was analyzed by qRT-PCR and immunoblot. […] Cell migration rates of HCT116 cells treated as in (A) were determined by Boyden chamber assay. Differences in control vs. treated cells were analyzed by Student's t test. […] Cell proliferation was determined by MTT assay. […] (E) Luminescence signal from liver metastases and spleen tumors. […]

[3] = test system: LS174T cells; experiment: Boyden chamber transwell migration assay; format: cell-based, human; conditions: 1 μM, 24 h
Experimental: (§1) HCT116, SW620, LS174T, SW480 and DLD-1 cells were used in cell migration and invasion analysis performed with Boyden chamber assay. 400 μL containing 2.5×10^5 cells were seeded into each transwell chamber with filter membranes of 12.0 μm pore size (Millipore, Schwalbach, Germany). For invasion filter membranes were coated with 50 μL Matrigel (diluted 1:3 in RPMI-1640; BD Biosciences) 10 minutes before cells were seeded. Fresh medium (600 μL) were added to the bottom chamber and cells were allowed to attach to the insets for 15 hours. Both chambers were treated with 1 μM niclosamide or the respective amount of DMSO and incubated at 37° C. and 5% CO2 in a humidified incubator for 24 hours. Afterwards insets were removed and cells that had migrated through the membrane to the lower chamber were trypsinized and counted in a Neubauer chamber (LO-Laboroptik, Bad Homburg, Germany). Each well was counted ten times. Each migration or invasion experiment was performed in duplicate. The average number of migrated or invaded cells was determined for at least three independent experiments.
(§2) (A) S100A4 expression under niclosamide treatment. Cells were treated with 1 μM niclosamide for 24 hours. S100A4 expression was analyzed with qRT-PCR and immunoblot. (B) Cell migration under niclosamide treatment. Migration rates of cells treated with 1 μM niclosamide for 24 hours were determined in a Boyden chamber assay values were normalized to solvent-treated SW620 cells. (C) Cell invasion under niclosamide treatment. Cells were seeded onto Matrigel covered transwells and treated with 1 μM niclosamide for 24 hours. Invaded cells in the lower chamber were counted and normalized to solvent-treated SW620 cells. Differences in solvent vs. niclosamide-treated cells were analyzed by Student's t test. Data represent mean±SE of at least two independent experiments each performed in triplicate. (D) Directed migration under niclosamide treatment. Wounds of 300 μM width were set in a 60% confluent monolayer of cells on day 1. Cells were treated daily with 1 μM niclosamide for 4 days. Microphotographs of day 4 are presented here with black lines indicating margins of the wound on day 1; scale bar represents 200 μM. Directed migration data shown are representatives of three independent experiments. (E) Adhesive cell proliferation under niclosamide treatment. Cells were treated daily with 1 μM niclosamide. The amount of viable cells per well was determined by MTT assay. (F) Anchorage-independent cell growth under niclosamide treatment. Cells were plated as single cells into 0.33% (w/v) agarose and treatment (solvent or 1 μM niclosamide) containing medium. After 7 days colonies were visualized by light microscopy at 10× (overview) and 40× (single colony) magnification. (G) Quantification of colonies formed. Number of colonies (of more than 4 cells) was counted and normalized to solvent-treated SW620 cells. Differences in solvent vs. niclosamide-treated cells were analyzed by Student's t test. Data represent mean mean±SE of at least two independent experiments each performed in duplicates.

[4] = test system: SW620 cells; experiment: Boyden chamber transwell migration assay; format: cell-based, human; conditions: 1 μM, 24 h
Experimental: as §1, §2

[5] = test system: DLD-1 cells; experiment: Boyden chamber transwell migration assay; format: cell-based, human; conditions: 1 μM, 24 h
Experimental: as §1, §2

[6] = test system: SW480 cells; experiment: Boyden chamber transwell migration assay; format: cell-based, human; conditions: 1 μM, 24 h
Experimental: as §1, §2

SMILES: O=C(Nc1ccc([N+](=O)[O-])cc1Cl)c1cc(Cl)ccc1O [niclosamide, 2′,5-dichloro-4′-nitrosalicylanilide]
- side effects [1]: only slight side effects
- anchorage-dependent proliferation ([2]; 1 μM daily, vs solvent-treated control): inhibited
- anchorage-dependent proliferation after removal of niclosamide ([2]; niclosamide removed on day 5, following five days): did not reverse the inhibition of cell proliferation
- migration, mean difference control vs niclosamide [3]: 41.3%
- cell migration rate, mean % (normalized to solvent-treated SW620 cells) ([3]; solvent control 68.2%): 26.8%
- migration, mean difference control vs niclosamide [4]: 52.1%
- cell migration rate, mean % (normalized to solvent-treated SW620 cells) ([4]; solvent control 100.0%): 47.9%
- cell migration rate [5]: not further affected
- migration, mean difference control vs niclosamide [6]: 11.1%
- cell migration rate, mean % (normalized to solvent-treated SW620 cells) ([6]; solvent control 21.7%): 10.6%

Source: patent US11331290B2, “Niclosamide for the treatment of cancer metastasis” (Max-Delbrück-Centrum für Molekulare Medizin in der …, priority 2011, dated 2022)
